# Assays:
# [1] = system: caspases 3/7 in A2780 cells; assay: activation of caspases 3/7, flow cytometry; assay type: cell-based, human; conditions: A2780, 15 µM, 24 h
# Method: Both methods were performed according to the manufacturers’ protocols with 1 modification in the caspase induction assay, which was the use of the CellEvent^TM Caspase-3/7 Green Detection Reagent only for detection of Caspase-3/7 activation. […] After 24 h, the cells were washed once with PBS (0.1 M, pH 7.4), detached with trypsin (0.25% in ethylenediaminetetraacetic acid (EDTA), Sigma-Aldrich), resuspended in 500 µL of the culture medium and divided into 2 separate tubes, the first for apoptosis assay and the second one for caspase activation analysis. After staining with appropriate dyes, samples were analyzed on a BD FACSVerse flow cytometer (Becton Dickinson, Franklin Lakes, NJ, USA) in 3 separate experiments, while at least 10^4 events were recorded for each sample prepared in duplicate.
# [2] = system: caspase 3 (Casp-3) in THP-1 cells; assay: Western blotting of apoptosis-related proteins; assay type: cell-based, human; conditions: THP-1, complexes 4 µM, 24 h, Western blot
# Method: In addition to the above-mentioned methods, the Western blotting method was used to shed light on the mechanisms associated with caspase 3 activation in the THP-1 cells. Two and a half milliliters of floating THP-1 monocytes resuspended in a serum-free RPMI 1640 medium were seeded into 6-well plates at the concentration of 10^6 cells/mL. Two hours later, complexes 3 and 5 were added at the concentration level of 4 µM. After 24 h incubation, the cells were collected by centrifugation (3000 g/5 min/4 °C), washed by cold PBS and resuspended in an ice-cold lysis buffer (50 mM Tris-HCl pH 7.5, 1 mM EGTA, 1 mM EDTA, 1 mM sodium orthovanadate, 50 mM sodium fluoride, 5 mM sodium pyrophosphate, 270 mM sucrose) with Roche cOmplete protease inhibitors (Roche Diagnostics, Basel, Switzerland). The cell lysates were centrifuged at 3000 g/5 min/4 °C and supernatants were mixed with a 5x Laemmli buffer [containing 250 mM Tris-HCl pH 6.8, 10% (w/v) SDS, 30% (v/v) glycerol, 5% (v/v) β-mercaptoethanol, 0.04% (w/v) bromphenol blue] and incubated at 70 °C for 5 min. […] The membranes were incubated at 4 °C for 16 h with a primary anti-cleaved caspase 3 (p17) antibody at the dilution 1:1000 (Cell Signaling, Danvers, MA, USA; products No. 9664), and an Apoptosis WB Cocktail (Abcam, Cambridge, UK; product No. ab136812) at the dilution recommended by the provider to detect β-actin, cleaved poly-(ADP-ribose) polymerase (PARP) and pro-caspase 3. After washing in a TBST buffer, the secondary anti-rabbit IgG antibody (Sigma-Aldrich, product No. A0545) was diluted 1:2500 and applied to the membranes, which were then incubated for 1 h at the laboratory temperature (~22 °C). The amount of bound secondary antibody was determined using an ECL reagent (Bio-Rad, Hercules, CA, USA). Chemiluminescence was detected using a Syngene PXi4 chemiluminescence imaging system (Cambridge, UK).
Compound,activation of executioner caspases 3/7 [1],levels of pro-caspase 3 (pro-Casp-3) [2],proteolytically activated Casp-3 (verified by cleaved PARP-1) ([2]; cisplatin 10 µM)
"CC(C)=CCc1c2c(c3occ(-c4ccc(O)c(O)c4)c(=O)c3c1[O-])C=CC(C)(C)O2.CO.O=[N+]([O-])[O-].[Cu+2].c1ccc(-c2ccnc3c2ccc2c(-c4ccccc4)ccnc23)cc1 [Complex 4, (3-(3,4-dihydroxyphenyl)-8,8-dimethyl-6-(3-methylbut-2-en-1-yl)-4H,8H-benzo[1,2-b:3,4-b′]dipyran-4-one-5-olato-κ^2O4:O5)(4,7-diphenyl-1,10-phenanthroline–κ^2N:N)copper(II) nitrate methanol solvate]",significantly increase the antiproliferative effects over the free pomiferin and reference drug cisplatin,,
"(3-(3,4-dihydroxyphenyl)-8,8-dimethyl-6-(3-methylbut-2-en-1-yl)-4H,8H-benzo[1,2-b:3,4-b′]dipyran-4-one-5-olato-κ^2O4:O5)(dipyrido[3,2-a:2′,3′-c]phenazine–κ^2N4:N5)copper(II) nitrate methanol solvate [Complex 5]",,dramatically decreased,only minor activity of Casp-3

# Source: publication PMC8305652, “Copper(II) Complexes Containing Natural Flavonoid Pomiferin Show Considerable In Vitro Cytotoxicity and Anti-inflammatory Effects” (International Journal of Molecular Sciences, 2021)
